Patent US9630961B2, “Arginine methyltransferase inhibitors and uses thereof” (Epizyme, Inc., priority 2013, dated 2017)

Legend:
PRMT6 = molecular target: T1, PRMT6 (Homo sapiens, UniProt Q96LA8); assay: PRMT6 Biochemical Assay (3H-SAM Flashplate, peptide substrate); conditions: 30 min preincubation, room temperature
T1 construct: Flag-PRMT6-His; made in house; host or cells: HEK 293F cells (BacMam virus)
From the text: S-adenosylmethionine (SAM), S-adenosylhomocysteine (SAH), bicine, Tween20, dimethylsulfoxide (DMSO), bovine skin gelatin (BSG), sodium butyrate and Tris(2-carboxyethyl)phosphine hydrochloride solution (TCEP) were purchased from Sigma-Aldrich at the highest level of purity possible. ^3H-SAM was purchase from American Radiolabeled Chemicals with a specific activity of 80 Ci/mmol. 384-well streptavidin Flashplates were purchased from PerkinElmer.
Peptide representative of human histone H4 residues 36-50 was synthesized with an N-terminal linker-affinity tag motif and a C-terminal amide cap by 21st Century Biochemicals. The peptide was purified by high-performance liquid chromatography (HPLC) to greater than 95% purity and confirmed by liquid chromatography mass spectrometry (LC-MS). The sequence was Biot-Ahx-[…]-amide and contained a monomethylated lysine at position 44 (SEQ ID NO.:5).
Full-length human PRMT6 (NM_018137.2) transcript clone was amplified from an HEK 293 cDNA library, incorporating a flanking 5′ sequence encoding a FLAG tag ([…]) (SEQ ID NO.:6) fused directly to Ser 2 of PRMT6 and a 3′ sequence encoding a hexa His sequence (HHHHHH) fused directly to Asp 375. The amplified gene was subcloned into pFastBacMam (Viva Biotech).
Recombinant baculovirus were generated according to Bac-to-Bac kit instructions (Life Technologies). […] Infections were carried out at 37° C. for 48 hours, harvested by centrifugation, and stored at −80° C. for purification.
Column was washed with 20 mM imidazole in the same buffer and Flag-PRMT6-His was eluted with 150 mM imidazole. Pooled fractions were dialysed against buffer Ni-A and further purified by anti-flag M2 affinity chromatography. Flag-PRMT6-His was eluted with 200 ug/ml FLAG peptide in the same buffer. Pooled fractions were dialysed in 20 mM Tris, 150 mM NaCl, 10% glycerol and 5 mM β-mercaptoethanol, pH 7.8. The purity of recovered protein was 95%.
General Procedure for PRMT6 Enzyme Assays on Peptide Substrates.
The assays were all performed in a buffer consisting of 20 mM Bicine (pH=7.6), 1 mM TCEP, 0.005% BSG, and 0.002% Tween 20, prepared on the day of use. Compounds in 100% DMSO (1 ul) were spotted into a polypropylene 384-well V-bottom plates (Greiner) using a Platemate Plus outfitted with a 384-channel head (Thermo Scientific). DMSO (1 ul) was added to Columns 11, 12, 23, 24, rows A-H for the maximum signal control and 1 ul of SAH, a known product and inhibitor of PRMT6, was added to columns 11, 12, 23, 24, rows I-P for the minimum signal control. A cocktail (40 ul) containing the PRMT6 enzyme was added by Multidrop Combi (Thermo-Fisher). The compounds were allowed to incubate with PRMT6 for 30 min at room temperature, then a cocktail (10 ul) containing SAM and peptide was added to initiate the reaction (final volume=51 ul). The final concentrations of the components were as follows: PRMT6 was 1 nM, ^3H-SAM was 200 nM, non-radiolabeled SAM was 250 nM, peptide was 75 nM, SAH in the minimum signal control wells was 1 mM, and the DMSO concentration was 2%. The assays were stopped by the addition of non-radiolabeled SAM (10 ul) to a final concentration of 400 uM, which dilutes the ^3H-SAM to a level where its incorporation into the peptide substrate is no longer detectable. 50 ul of the reaction in the 384-well polypropylene plate was then transferred to a 384-well Flashplate and the biotinylated peptides were allowed to bind to the streptavidin surface for at least 1 hour before being washed once with 0.1% Tween20 in a Biotek ELx405 plate washer. The plates were then read in a PerkinElmer TopCount plate reader to measure the quantity of ^3H-labeled peptide bound to the Flashplate surface, measured as disintegrations per minute (dpm) or alternatively, referred to as counts per minute (cpm).
Where dpm=disintegrations per minute, cmpd=signal in assay well, and min and max are the respective minimum and maximum signal controls. […]

[1] = tested on: mono-methyl arginine in RKO cells; assay: RKO Methylation Assay, In Cell Western for mono-methyl arginine and DNA content; format: cell-based; conditions: Homo sapiens, 72 hours, percent activation of mono-methyl arginine signal
From the text: RKO Methylation Assay RKO adherent cells were purchased from ATCC (American Type Culture Collection), Manassas, Va., USA. DMEM/Glutamax medium, penicillin-streptomycin, heat inactivated fetal bovine serum, 0.05% trypsin and D-PBS were purchased from Life Technologies, Grand Island, N.Y., USA. Odyssey blocking buffer, 800CW goat anti-rabbit IgG (H+L) antibody, and Licor Odyssey infrared scanner were purchased from Licor Biosciences, Lincoln, Nebr., USA. Mono-methyl arginine antibody was purchased from Cell Signaling Technology, Danvers, Mass., USA. Methanol was purchased from VWR, Franklin, Mass., USA. 10% Tween 20 was purchased from KPL, Inc., Gaithersburg, Md., USA. DRAQ5 was purchased from Biostatus Limited, Leicestershire, UK. RKO adherent cells were maintained in growth medium (DMEM/Glutamax medium supplemented with 10% v/v heat inactivated fetal bovine serum and 100 units/mL penicillin-streptomycin) and cultured at 37° C. under 5% CO2. Cell Treatment, in Cell Western (ICW) for Detection of Mono-Methyl Arginine and DNA Content. RKO cells were seeded in assay medium at a concentration of 20,000 cells per mL to a poly-D-lysine coated 384 well culture plate (BD Biosciences 356697) with 50 μL per well. Compound (100 nL) from a 96-well source plate was added directly to 384 well cell plate. Plates were incubated at 37° C., 5% CO2 for 72 hours. After three days of incubation, plates were brought to room temperature outside of the incubator for ten minutes and blotted on paper towels to remove cell media. 50 μL of ice cold 100% methanol was added directly to each well and incubated for 30 min at room temperature. After 30 min, plates were transferred to a Biotek EL406 plate washer and washed 2 times with 100 μL per well of wash buffer (IX PBS). Next 60 μL per well of Odyssey blocking buffer (Odyssey Buffer with 0.1% Tween 20 (v/v)) were added to each plate and incubated 1 hour at room temperature. Blocking buffer was removed and 20 μL per well of primary antibody was added (mono-methyl arginine diluted 1:200 in Odyssey buffer with 0.1% Tween 20 (v/v)) and plates were incubated overnight (16 hours) at 4° C. Plates were washed 5 times with 100 μL per well of wash buffer. Next 20 μL per well of secondary antibody was added (1:200 800CW goat anti-rabbit IgG (H+L) antibody, 1:1000 DRAQ5 (Biostatus limited) in Odyssey buffer with 0.1% Tween 20 (v/v)) and incubated for 1 hour at room temperature. The plates were washed 5 times with 100 μL per well wash buffer then 2 times with 100 μL per well of water. Plates were allowed to dry at room temperature then imaged on the Licor Odyssey machine which measures integrated intensity at 700 nm and 800 nm wavelengths. Both 700 and 800 channels were scanned. Calculations: First, the ratio for each well was determined by: Each plate included fourteen control wells of DMSO only treatment (minimum activation) as well as fourteen control wells for maximum activation treated with 20 μM of a reference compound. The average of the ratio values for each control type was calculated and used to determine the percent activation for each test well in the plate. Reference compound was serially diluted three-fold in DMSO for a total of nine test concentrations, beginning at 20 μM. Percent activation was determined and EC30 curves were generated using triplicate wells per concentration of compound.

T1 sequence (Q96LA8 with tags, fused parts or gaps): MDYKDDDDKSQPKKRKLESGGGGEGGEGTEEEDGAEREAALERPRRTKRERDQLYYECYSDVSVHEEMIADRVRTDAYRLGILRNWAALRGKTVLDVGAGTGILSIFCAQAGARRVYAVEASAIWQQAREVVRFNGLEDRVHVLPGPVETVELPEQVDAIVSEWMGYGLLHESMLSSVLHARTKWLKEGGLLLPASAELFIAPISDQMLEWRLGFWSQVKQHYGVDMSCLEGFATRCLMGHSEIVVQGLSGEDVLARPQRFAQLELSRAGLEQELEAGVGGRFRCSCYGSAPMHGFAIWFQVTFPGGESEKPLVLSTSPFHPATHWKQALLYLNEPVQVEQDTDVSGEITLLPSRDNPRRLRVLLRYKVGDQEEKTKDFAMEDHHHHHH

`Cc1nn(C)c(C)c1-c1n[nH]cc1CN(C)CCN` [Compound 26] was tested, and the IC50 (PRMT6) was no less than 10 µM and the EC30 [1] was no less than 12 µM.
